{
  "source": "patent US9714249B2",
  "about": "(Novartis AG, priority 2013, dated 2017)",
  "data": [
    {"molecular_target": "BRD4-NUT-fusion (Homo sapiens (Human), UniProt O60885+Q86Y26)", "assay": "Nut-foci formation assay (HCS) in HCC2494 NUT midline carcinoma cells", "type": "cell-based", "details": "24 hours, nuclear BRD4-NUT foci, immunofluorescence", "description": "Compound-mediated inhibition of BRD4 activity was monitored by quantification of the number and intensity of nuclear BRD4-NUT foci using automated immunofluorescence microscopy. Briefly, 5000 cells in 20 μl fresh medium were seeded into Poly-D-Lysine-precoated 384-well plates and incubated overnight at 37° C. and 5% CO2, followed by addition of 5 μl medium containing compound dilutions at 5-fold their final intended concentration. Dose-response effects were assessed by 3-fold serial dilutions of the test compound, starting at 10 μM. […] Assay plates were imaged using the appropriate filter sets on the Cellomics VTi automated fluorescence microscopy platform (ThermoFisher Scientific) and the population average of the number of NUT-foci per nucleus is quantified using the Cellomics Spot Detection BioApplication image analysis algorithm (ThermoFisher Scientific). The effect of a particular test compound concentration on NUT-foci number and intensity is expressed as percentage of the value obtained for cells treated with vehicle only (DMSO, 0.1% final concentration), which was set as 100.", "units": {"IC50": "nM"}, "values": [
      {"smiles": "COc1ncccc1-c1nn(C)c2c1C(=O)N(c1cc(C)c(=O)n(C)c1)[C@@H]2c1ccc(Cl)cc1", "note": "[Example 16, (R)-6-(4-chlorophenyl)-5-(1,5-dimethyl-6-oxo-1,6-dihydropyridin-3-yl)-3-(2-methoxypyridin-3-yl)-1-methyl-5,6-dihydropyrrolo[3,4-c]pyrazol-4(1H)-one]", "IC50": 60.6},
      {"smiles": "CCOc1ncccc1-n1nc2c(c1C)C(=O)N(c1cc(C)c(=O)n(C)c1)C2c1ccc(Cl)cc1", "note": "(stereo not shown) [Example 18b, 6-(4-chlorophenyl)-5-(1,5-dimethyl-6-oxo-1,6-dihydropyridin-3-yl)-2-(2-ethoxypyridin-3-yl)-3-methyl-5,6-dihydropyrrolo[3,4-c]pyrazol-4(2H)-one]", "IC50": 21.7},
      {"smiles": "COc1ccc(-n2nc(C)c3c2C(c2ccc(Cl)cc2)N(c2cc(C)c(=O)n(C)c2)C3=O)cn1", "note": "(stereo not shown) [Example 20b, 6-(4-chlorophenyl)-5-(1,5-dimethyl-6-oxo-1,6-dihydropyridin-3-yl)-1-(6-methoxypyridin-3-yl)-3-methyl-5,6-dihydropyrrolo[3,4-c]pyrazol-4(1H)-one]", "IC50": 57.6},
      {"smiles": "Cc1nn(C2CC2)c2c1C(=O)N(c1cc(C)c(=O)n(C)c1)C2c1ccc(Cl)cc1", "note": "(stereo not shown) [Example 11, 6-(4-chlorophenyl)-1-cyclopropyl-5-(1,5-dimethyl-6-oxo-1,6-dihydropyridin-3-yl)-3-methyl-5,6-dihydropyrrolo[3,4-c]pyrazol-4(1H)-one]", "IC50": 41.7},
      {"smiles": "Cc1nn(C)c2c1C(=O)N(c1cc(C)c(=O)n(C)c1)C2c1ccc(Cl)cc1", "note": "(stereo not shown) [Example 10, 6-(4-chlorophenyl)-5-(1,5-dimethyl-6-oxo-1,6-dihydropyridin-3-yl)-1,3-dimethyl-5,6-dihydropyrrolo[3,4-c]pyrazol-4(1H)-one]", "IC50": 108},
      {"smiles": "Cc1cc(N2C(=O)c3c(C4CC4)nn(CCO)c3C2c2ccc(Cl)cc2)cn(C)c1=O", "note": "(stereo not shown) [Example 3, 6-(4-chlorophenyl)-3-cyclopropyl-5-(1,5-dimethyl-6-oxo-1,6-dihydropyridin-3-yl)-1-(2-hydroxyethyl)-5,6-dihydropyrrolo[3,4-c]pyrazol-4(1H)-one]", "IC50": 49},
      {"smiles": "COc1ncc(-n2nc3c(c2C)C(=O)N(c2cc(Cl)c(=O)n(C)c2)C3c2ccc(Cl)cc2)cn1", "note": "(stereo not shown) [Example 8b, 5-(5-chloro-1-methyl-6-oxo-1,6-dihydropyridin-3-yl)-6-(4-chlorophenyl)-2-(2-methoxypyrimidin-5-yl)-3-methyl-5,6-dihydropyrrolo[3,4-c]pyrazol-4(2H)-one]", "IC50": 58},
      {"smiles": "COc1ncccc1-c1nn(C)c2c1C(=O)N(c1cc(C)c(=O)n(C)c1)C2c1ccc(Cl)cc1", "note": "(stereo not shown) [Example 15, 6-(4-chlorophenyl)-5-(1,5-dimethyl-6-oxo-1,6-dihydropyridin-3-yl)-3-(2-methoxypyridin-3-yl)-1-methyl-5,6-dihydropyrrolo[3,4-c]pyrazol-4(1H)-one]", "IC50": 60.7},
      {"smiles": "CNC1=C(C(=N)C2CC2)C(=O)N(c2cc(C)c(=O)n(C)c2)[C@@H]1c1ccc(Cl)cc1", "note": "[Example 2]", "IC50": 20.1},
      {"smiles": "COc1ncccc1-n1nc2c(c1C)C(=O)N(c1cc(C)c(=O)n(C)c1)C2c1ccc(Cl)cc1", "note": "(stereo not shown) [Example 17b, 6-(4-chlorophenyl)-5-(1,5-dimethyl-6-oxo-1,6-dihydropyridin-3-yl)-2-(2-methoxypyridin-3-yl)-3-methyl-5,6-dihydropyrrolo[3,4-c]pyrazol-4(2H)-one]", "IC50": 40.3},
      {"smiles": "Cc1cc(N2C(=O)c3c(C4CC4)nn(-c4ccnn4C)c3C2c2ccc(Cl)cc2)cn(C)c1=O", "note": "(stereo not shown) [Example 5, 6-(4-chlorophenyl)-3-cyclopropyl-5-(1,5-dimethyl-6-oxo-1,6-dihydropyridin-3-yl)-1-(1-methyl-1H-pyrazol-5-yl)-5,6-dihydropyrrolo[3,4-c]pyrazol-4(1H)-one]", "IC50": 138},
      {"smiles": "COc1ncccc1-n1nc2c(c1C)C(=O)N(c1cc(Cl)c(=O)n(C)c1)C2c1ccc(Cl)cc1", "note": "(stereo not shown) [Example 7b, 5-(5-chloro-1-methyl-6-oxo-1,6-dihydropyridin-3-yl)-6-(4-chlorophenyl)-2-(2-methoxypyridin-3-yl)-3-methyl-5,6-dihydropyrrolo[3,4-c]pyrazol-4(2H)-one]", "IC50": 74.4},
      {"smiles": "COCCn1nc(C2CC2)c2c1C(c1ccc(Cl)cc1)N(c1cc(C)c(=O)n(C)c1)C2=O", "note": "(stereo not shown) [Example 4, 6-(4-chlorophenyl)-3-cyclopropyl-5-(1,5-dimethyl-6-oxo-1,6-dihydropyridin-3-yl)-1-(2-methoxyethyl)-5,6-dihydropyrrolo[3,4-c]pyrazol-4(1H)-one]", "IC50": 29.9},
      {"smiles": "Cc1nn(-c2cccnc2F)c2c1C(=O)N(c1cc(C)c(=O)n(C)c1)C2c1ccc(Cl)cc1", "note": "(stereo not shown) [Example 19, 6-(4-chlorophenyl)-5-(1,5-dimethyl-6-oxo-1,6-dihydropyridin-3-yl)-1-(2-fluoropyridin-3-yl)-3-methyl-5,6-dihydropyrrolo[3,4-c]pyrazol-4(1H)-one]", "IC50": 66.7},
      {"smiles": "Cc1nn(C(C)C)c2c1C(=O)N(c1cc(C)c(=O)n(C)c1)C2c1ccc(Cl)cc1", "note": "(stereo not shown) [Example 12, 6-(4-chlorophenyl)-5-(1,5-dimethyl-6-oxo-1,6-dihydropyridin-3-yl)-1-isopropyl-3-methyl-5,6-dihydropyrrolo[3,4-c]pyrazol-4(1H)-one]", "IC50": 48.4},
      {"smiles": "Cc1cc(N2C(=O)c3c(C4CC4)nn(C)c3C2c2ccc(Cl)cc2)cn(C)c1=O", "note": "(stereo not shown) [Example 1, 6-(4-chlorophenyl)-3-cyclopropyl-5-(1,5-dimethyl-6-oxo-1,6-dihydropyridin-3-yl)-1-methyl-5,6-dihydropyrrolo[3,4-c]pyrazol-4(1H)-one]", "IC50": 33.3},
      {"smiles": "COc1ccc(-n2nc3c(c2C)C(=O)N(c2cc(C)c(=O)n(C)c2)C3c2ccc(Cl)cc2)cn1", "note": "(stereo not shown) [Example 20a, 6-(4-chlorophenyl)-5-(1,5-dimethyl-6-oxo-1,6-dihydropyridin-3-yl)-2-(6-methoxypyridin-3-yl)-3-methyl-5,6-dihydropyrrolo[3,4-c]pyrazol-4(2H)-one]", "IC50": 73.6},
      {"smiles": "COc1ncc(-n2nc(C)c3c2C(c2ccc(Cl)cc2)N(c2cc(Cl)c(=O)n(C)c2)C3=O)cn1", "note": "(stereo not shown) [Example 8a, 5-(5-chloro-1-methyl-6-oxo-1,6-dihydropyridin-3-yl)-6-(4-chlorophenyl)-1-(2-methoxypyrimidin-5-yl)-3-methyl-5,6-dihydropyrrolo[3,4-c]pyrazol-4(1H)-one]", "IC50": 298},
      {"smiles": "Cc1[nH]nc2c1C(=O)N(c1cc(Cl)c(=O)n(C)c1)C2c1ccc(Cl)cc1", "note": "(stereo not shown) [Example 6, 5-(5-chloro-1-methyl-6-oxo-1,6-dihydropyridin-3-yl)-6-(4-chlorophenyl)-3-methyl-5,6-dihydropyrrolo[3,4-c]pyrazol-4(2H)-one]", "IC50": 108}
    ]}
  ]
}
